# Experimental data from patent publication US10441744B2, “Flushable catheter affixed to a wash line activated by a microfluidic pressure switch” (priority 2013, dated 2019).
# System: cells attached to plastic surface
# Test: detachment and removal of cells from plastic surface by cleaning solutions
# Assay type: cell-based
# Procedure: The first step with solution A: Solution A contains proteases. Proteases can be used to digest proteins attached to plastic surface. For example, trypsin can be used to release a cell layer from plastic dishes. An application of trypsin (pre-warmed at 37° C.) can lead the single cell layer to detach from the plastic bottom in a few minutes. When incubated at 30° C. (may be similar to the temperature of the part of catheters out of body), trypsin may detach heavy, multilayer cells from plastic surface in 30 min. Biofilm often contains multi-layers of cells can be digested and detach the layers of cells from plastic surface 30 min after trypsin incubation at 37° C.
# The second step with solution B: While most of the cells may be detached by protease treatment (such as trypsin), a few cells may remain on the plastic surface, particularly when the incubation temperature is not at optimal digestive temperature (such as 37° C. for trypsin) as may happen for the part of catheters out of patients. Solution B may be used to continue the treatment for two purposes. Solution B contains high ion concentration that may reduce attachment of cell to plastic surface at room temperature. High ion concentration such as addition of 0.45M NaCl may also further reduce proteins binding to the surface (Ouyang et al., 1997). The second purpose is to deactivate remaining trypsin as a buffer without calcium and magnesium. […] Although it is not necessary to understand the mechanism of action of the current invention, it is believed that a higher concentration of saline solution (0.45M NaCl or above), similar to elution buffer for ion chromatography, helps to clean cells and/or proteins still attached to plastic due to charge of the ions.
# The third step with solution C: After most of the bacterial and cells detach from plastic and wash away, 70% ethanol may be applied to kill possible bacterial remains and/or denature proteins still attached on the plastic surface. […]
substance,measurement,setting,value
trypsin,"time to detach heavy, multilayer cells from plastic surface",incubated at 30° C.,30 min
same,time to digest and detach layers of cells (biofilm multi-layers) from plastic surface,trypsin incubation at 37° C.,30 min
same,time for single cell layer to detach from the plastic bottom,trypsin pre-warmed at 37° C.,a few minutes
